Values joined by “and” are separate entries in the source; they are usually repeats but may differ in a detail not shown here. Equal entries are not always repeated.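 48-hour exposure; five concentrations; linearly interpolated endpoints. Abbreviation: GI50, concentration required for 50% inhibition of growth. TGI: total growth inhibition.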
Tests used:
Assay in all cases: inhibition of tumour cell growth, NCI panel, 48 h
M19-MEL melanoma = system: M19-MEL melanoma
MALME-3M melanoma = system: MALME-3M melanoma
KM20L2 colon = system: KM20L2 colon
NCI-H522 lung = system: NCI-H522 lung
SR leukemia = system: SR leukemia
KM12 colon = system: KM12 colon
HOP-18 NSCLC = system: HOP-18 NSCLC
DLD-1 colon = system: DLD-1 colon
DMS 114 small cell lung = system: DMS 114 small cell lung
BT-549 breast = system: BT-549 breast
T-47D breast = system: T-47D breast

SMILES	GI50 (M19-MEL melanoma)	TGI (M19-MEL melanoma)	GI50 (MALME-3M melanoma)	TGI (MALME-3M melanoma)	GI50 (KM20L2 colon)	TGI (KM20L2 colon)	GI50 (NCI-H522 lung)	TGI (NCI-H522 lung)	GI50 (SR leukemia)	TGI (SR leukemia)	GI50 (KM12 colon)	TGI (KM12 colon)	TGI (HOP-18 NSCLC)	TGI (DLD-1 colon)	TGI (DMS 114 small cell lung)	TGI (BT-549 breast)	GI50 (T-47D breast)	TGI (T-47D breast)
CC(=O)[O][Hg][c]1s[c]([Hg][O]C(C)=O)[c]([Hg][O]C(C)=O)[c]1[Hg][O]C(C)=O	3.99 µM	> 100 µM	3.16 µM	17.2 µM	14.3 µM	37.3 µM	2.54 µM	> 100 µM	2.27 µM	> 100 µM	22.6 µM	> 100 µM	–	–	–	–	–	–
Cc1ccc(C)c(NC(=O)C(=O)Nn2c(=S)[nH]c3ccccc3c2=O)c1	–	–	–	> 100 µM	–	> 100 µM	–	> 100 µM	–	> 100 µM	–	> 100 µM	> 100 µM	> 100 µM	> 100 µM	–	–	–
O/N=C1\C(=C\c2ccc3c(c2)OCCO3)CCCC1C(NO)c1ccc2c(c1)OCCO2 (configuration not stated)	–	52.5 µM	–	63.7 µM	–	35.6 µM	–	29.6 µM	–	55.5 µM	–	52 µM	> 100 µM	> 100 µM	44.6 µM	–	–	–
CC1OC(=O)N2CCC=CC12 (configuration not stated)	–	> 100 µM	–	> 100 µM	–	> 100 µM	–	> 100 µM	–	–	–	> 100 µM	> 100 µM	> 100 µM	> 100 µM	–	–	–
COc1cc([C@@H]2c3cc4c(cc3[C@@H](NCc3cccc(F)c3)C3COC(=O)[C@@H]32)OCO4)cc(OC)c1O (some centres not stated)	–	–	–	21.5 µM	–	21.2 µM	–	19.4 µM	–	–	–	17.4 µM	> 65 µM	> 65 µM	31.6 µM	–	–	–
Cc1nc(-n2nc(-c3ccccc3)cc2-c2ccccc2)sc1C(=O)/C=C/c1cccc([N+](=O)[O-])c1	–	30.4 µM	–	41.1 µM	–	40.8 µM	–	30.8 µM	–	–	–	11.4 µM	24.5 µM	24.3 µM	34.3 µM	–	–	–
CCOc1ccccc1NC(=O)C1=C(C)NC(C)=C(C(=O)Nc2ccccc2OCC)C1c1cccc([N+](=O)[O-])c1	–	> 100 µM	–	> 100 µM	–	> 100 µM	–	> 100 µM	–	–	–	> 100 µM	–	> 100 µM	> 100 µM	–	–	–
O=C(N/C(=C\c1ccc(F)cc1)c1nc2ccccc2[nH]1)c1ccccc1	–	> 100 µM	–	> 100 µM	–	> 100 µM	–	> 100 µM	–	–	–	> 100 µM	> 100 µM	> 100 µM	> 100 µM	–	–	–
Cc1ccc([N+]2=NC(c3ccccc3)=NN(c3ccccc3)C2)cc1	–	> 100 µM	–	> 100 µM	–	> 100 µM	–	–	–	> 100 µM	–	> 100 µM	–	> 100 µM	> 100 µM	–	–	–
CN1C/C(=C\c2ccc(C(=O)O)cc2)C(=O)/C(=C/c2ccc(C(=O)O)cc2)C1	–	> 100 µM	–	> 100 µM	–	> 100 µM	–	–	–	> 100 µM	–	> 100 µM	> 100 µM	> 100 µM	> 100 µM	–	–	–
COC(=O)C(C)Oc1ccc(O)cc1 (configuration not stated)	–	> 100 µM	–	> 100 µM	–	> 100 µM	–	> 100 µM	–	–	–	> 100 µM	> 100 µM	> 100 µM	34.7 µM	–	–	–
COC(=O)Nc1nc2ccc(C(=O)c3cccs3)cc2[nH]1	–	> 100 µM	0.296 µM	43.5 µM and > 100 µM	–	0.0377 µM	0.0139 µM and 0.107 µM	0.0606 µM	0.019 µM and 0.0327 µM	5.98 µM	0.0541 µM	41 µM and > 100 µM	> 100 µM	> 100 µM	> 100 µM	4.33 µM	> 100 µM	> 100 µM
COC(=O)C(/C(=N\O)C(=O)Nc1ccc(Br)cc1)c1nc2ccccc2[nH]c1=O (configuration not stated)	–	68.2 µM	–	> 100 µM	–	> 100 µM	–	32.5 µM	–	40.5 µM	–	> 100 µM	> 100 µM	> 100 µM	41.2 µM	–	–	–
CC(CC(=O)Nc1ccc(NC(=O)CC(C)N=NC(N)=O)cc1)N=NC(N)=O (configuration not stated)	–	> 100 µM	–	> 100 µM	–	> 100 µM	–	> 100 µM	–	48.4 µM	–	> 100 µM	> 100 µM	> 100 µM	38.2 µM	–	–	–
C#C[C@@H](CCCC)OC(=O)N[C@H](C)c1ccccc1	–	> 100 µM	–	–	–	> 100 µM	–	–	–	> 100 µM	–	> 100 µM	> 100 µM	> 100 µM	> 100 µM	–	–	–
Cc1c(Cl)cccc1NC(=O)C(=O)c1c(O)c2ccc(O)cc2oc1=O	–	> 100 µM	–	> 100 µM	–	> 100 µM	–	> 100 µM	–	> 100 µM	–	> 100 µM	> 100 µM	> 100 µM	> 100 µM	–	–	–
COC1CC(n2cc(F)c(N)nc2=O)OC1CO (configuration not stated)	–	–	–	> 100 µM	–	> 100 µM	–	> 100 µM	–	–	–	> 100 µM	> 100 µM	> 100 µM	> 100 µM	–	–	–
